US8026069B2, “Process for identification of compounds for modulating the activity of sodium/calcium exchange transporter” (Sanofi-Aventis Deutschland GmbH, priority 2004, dated 2011)

Target: T1, NCX1-containing HEK membrane fragments (human cardiac sodium calcium exchanger NCX-1) (Homo sapiens, UniProt P32418)
T1 construct: expressed in transfected cells; host or cells: HEK-293 (Flp-In T-Rex-293-NCX1, DSM ACC2670), doxycycline-induced; membrane fragments
Test: cell free electrophysiological sensor chip (SurfE2R) NCX assay, current on Ca2+ concentration jump
Type: biochemical
Conditions: 5 mM
Description: 10-30 μl, for example, of NCX-containing membrane fragments were applied and circulated on the sensor chip and preferably incubated for at least 12 hours at 4° C. In preferred cases of experiments the NCX protein is a human NCX1 protein. The capacitance of the protein-loaded sensor chip was preferably around 100 nF cm^−2 and the conductance G1s preferably around 10 nS cm^−2. The principal of the assay is to test the electrical activity of NCX protein in the absence of the inhibitor and afterwards in the presence of the inhibitor. For this reason the NCX-sensor chip is rinsed with a sequence of solutions, which activate NCX. In general, there is the possibility to test whether an inhibitor is reversible. In this case after the inhibitor application the solutions are changed back to inhibitor-free conditions. Before the experiment the solution reservoirs of the chip are filled with the following preferred solutions: washing buffer: 40 mM KCl, 100 mM NaCl, 4 mM MgCl2, 30 mM HEPES/NMG pH 7.4; non-activating solution: 140 mM KCl, 4 mM MgCl2, 30 mM HEPES/NMG pH 7.4; activating solution: 140 mM KCl, 4 mM MgCl2, 30 mM HEPES/NMG pH 7.4, 0.5 mM CaCl2. […]
For the determination of its activity, the NCX protein was treated consecutively with a washing, non-activating and activating solution and the electrical current was measured when changing from […] to activating treatment. […]

SMILES: [Ni+2] [Ni^2+]
- effect on NCX current in control experiments: diminished
